What was measured:
[1] = cited from earlier work
[2] = Phase-solubility study of nicardipine HCl and CAPTISOL as a function of pH; assay type: physicochemical; details: FIG. 1
Description: in this phase-solubility study, nicardipine HCl, in amounts that exceeded its solubility, was taken into vials containing buffers in the pH range of 3.6-7.4 and containing CAPTISOL® in the concentration range of 2-40% w/v. These evaluations were also done for buffer solutions containing no CAPTISOL®. The vials were sealed and shaken at room temperature until equilibrium was reached. Subsequently, test sample aliquots were withdrawn, filtered, and drug concentration was determined by RP-HPLC with UV detection.

solubility as a function of CAPTISOL concentration ([2]; at a given pH value, CAPTISOL 2-40% w/v) | solubility as a function of pH ([2]; buffers pH 3.6-7.4, room temperature) | Compound | solubility in water [1]
– | – | COC(=O)C1=C(C)NC(C)=C(C(=O)OCCN(C)Cc2ccccc2)C1c1cccc([N+](=O)[O-])c1 (stereo not drawn) [Nicardipine, nicardipine] | only slightly soluble in water
increased | decreased with increased pH | COC(=O)C1=C(C)NC(C)=C(C(=O)OCCN(C)Cc2ccccc2)C1c1cccc([N+](=O)[O-])c1.Cl (racemic) [nicardipine HCl, (±)-2-(benzyl-methylamino)ethyl methyl 1,4-dihydro-2,6-dimethyl-4-(m-nitrophenyl)-3,5-pyridinedicarboxylate monohydrochloride] | –

Source: patent publication US9549994B2, “Compositions of nicardipine and sulfoalkylated β-cyclodextrin” (EKR Therapeutics, Inc., priority 2006, dated 2017)
